According to PMC4335872, “Pharmacokinetic-Pharmacodynamic Analysis of Spiroindolone Analogs and KAE609 in a Murine Malaria Model” (Antimicrobial Agents and Chemotherapy, 2015):

Key:
[1] = system: P. falciparum NF54; experiment: In vitro [3H]hypoxanthine incorporation assay, P. falciparum NF54; assay type: cell-based, Plasmodium falciparum; details: 16 h + 8 h incubation; read-out: IC50 (mean ± SD) for P. falciparum NF54 (n = 3)
Description: Human erythrocytes served as the host cells. In vitro antimalarial activity was measured using the [^3H]hypoxanthine incorporation assay ([36]) with strain NF54 of P. falciparum (obtained from Hoffmann-LaRoche Ltd.). The compounds were dissolved in dimethyl sulfoxide (DMSO) at a concentration of 10 mM, diluted in hypoxanthine-free culture medium, and titrated in duplicate over a 64-fold range in 96-well plates. […] The parasites were harvested onto glass fiber filters, and radioactivity was measured using a BetaPlate liquid scintillation counter (Wallac, Zurich, Switzerland). All assays were repeated at least three times. The results were recorded and expressed as a percentage of the untreated controls. […] In addition, for the PK-PD analysis of KAE609, an IC99 value was determined by transforming the data from a scintillation counter (Anscombe transformation) to account for Poissonian measurement error. […] Each of the three replicates was performed on a distinct 96-well plate. This has been accounted for in the fitting procedure by means of a Bayesian hierarchical model. The software used for parameter inference was Stan ([37]).

[2] = system: P. berghei GFP ANKA PbGFPCON; experiment: In vitro (ex vivo) P. berghei maturation assay; assay type: cell-based, Plasmodium berghei; details: 16 h + 8 h incubation; read-out: IC50 (mean ± SD) for P. berghei GFP ANKA PbGFPCON (n = 3)
Description: For the in vitro (ex vivo) P. berghei maturation assays ([38]), heparinized blood from infected mice (P. berghei GFP ANKA malaria strain PbGFPCON, a donation from A. P. Waters and C. J. Janse, Leiden University, Leiden, the Netherlands) ([39]) was washed with 9 ml of hypoxanthine-free culture medium and diluted with hypoxanthine-free culture medium and red blood cells (RBCs) from uninfected mice to a hematocrit of 5% and a parasitemia of 0.3%. Serial compound dilutions were prepared in DMSO and distributed as described above. The infected erythrocytes (0.3% final parasitemia and 2.5% final hematocrit) were added into the wells. After the plates were incubated for 16 h, 0.25 μCi of [^3H]hypoxanthine was added per well, and the plates were incubated for an additional 8 h. The parasites were harvested, and the in vitro (ex vivo) P. berghei IC50, IC90, and IC99 values were determined as described above.

[3] = In vivo PK after single p.o. and i.v. dosing in CD-1 mice; parameters: species or system female CD-1 mice; details: CD-1 mice
Description: The Institutional Animal Care and Use Committee (IACUC) of the Novartis Institute for Tropical Diseases (NITD), registered with the Agri-Food and Veterinary authority (AVA), Government of Singapore, reviewed and approved all animal experimental protocols. […] The mice were allowed to acclimate before the initiation of the experiments. Feed and water were given ad libitum. […] The blood samples from the mice were collected at 0.02 (for i.v. only), 0.08, 0.25, 0.5, 1, 2, 4, 8, 16, and 24 h postdosing. The dose proportionality studies were conducted with KAE609. […] Additional samples were collected at 32 h and 48 h postdose for the 1- and 5-mg/kg dose groups and up to 72 h postdose for the 100-mg/kg dose group. Groups of three mice were used for each time point. Blood was centrifuged at 13,000 rpm for 7 min at 4°C, and plasma was harvested and stored at -20°C until analysis. […] After vortexing and centrifuging the mixture, the supernatant was removed and 5 μl of sample analyzed. Analyte quantitation was performed by high-performance liquid chromatography coupled with tandem mass spectrometry (LC-MS/MS). […] Instrument control and data acquisition were performed using the Applied Biosystems software Analyst 1.4.2. […] Multiple-reaction monitoring (MRM) was combined with optimized MS parameters to maximize detection specificity and sensitivity. The most intense MRM transitions [338.3/295.1 for (+)-1, 370.1/327.0 for (+)-2, 370.0/326.9 for (+)-3, 354.1/310.8 for (+)-4, 354.1/311.2 for (+)-5, 372.1/329.1 for (+)-6, 388.0/331.8 for (+)-7, 372.1/316.1 for (-)-6, and 388/332 for (-)-7] were used for quantitation. Most compounds were analyzed using electrospray ionization in the negative mode, except (+)-1, which was analyzed using positive mode. The recovery of the compounds from plasma was good and consistent across the concentration range studied. The lower limits of quantification for different compounds ranged from 1.3 to 70 ng/ml in plasma. A calibration curve was freshly prepared and analyzed with every set of study samples. Intraday variability was established with triplicate quality control samples at three concentration levels. The results were accepted if relative standard deviation was <15%. The mean values of the compound concentrations in plasma were obtained from three animals at each time point and plotted against time to generate concentration-time profiles. […] The oral bioavailability (F) was calculated as the ratio between the area under the concentration-time curve from 0 to infinity (AUC0-∞) following oral administration and the AUC0-∞ following intravenous administration corrected for dose (F = […].).

[4] = system: P. berghei GFP ANKA malaria strain PbGFPCON; experiment: Dose-response efficacy in the P. berghei malaria mouse model; assay type: in vivo, female NMRI mice
Excerpt: All in vivo studies conducted at the Swiss Tropical and Public Health Institute (TPH) adhered to local and national regulations of laboratory animal welfare in Switzerland (permission no. 1731). For in vivo efficacy, female (specific-pathogen-free) […] (NMRI) mice were obtained from Janvier, Le Genest-Saint-Isle, France. Only mice without visible signs of disease were used for the study. Standard laboratory conditions were adopted for husbandry. In vivo antimalarial activity was assessed using groups of five female NMRI mice (20 to 22 g) intravenously infected on day zero with 2 × 10^7 erythrocytes parasitized with P. berghei GFP ANKA malaria strain PbGFPCON (a donation from A. P. Waters and C. J. Janse, Leiden University) ([39]). Untreated control mice typically died between day six and day seven postinfection. Experimental compounds were formulated in 10% ethanol, 30% PEG 400, and 60% of 10% vitamin E TPGS and were administered orally in a volume of 10 ml/kg. Dose-response efficacy studies were conducted for each spiroindolone analog. Doses of 2.5, 5, 10, 30, and 100 mg/kg were administered to groups of 5 mice each as a single dose at 24 h postinfection. Parasitemia, expressed as parasitized red blood cells (pRBCs) of >100 RBCs, was determined 72 h postinfection using standard flow cytometry techniques ([39]).
Data analysis was done using nonlinear mixed-effect modeling (NONMEM version VI 2.0), which analyzed the PD data from multiple dose groups obtained simultaneously from different experiments. Within NONMEM, first-order conditional estimation (FOCE) was the method used ([40]). The log-transformed dose and level of parasitemia were used for analysis. For each compound, a dose-response model was built, and the ED90 (effective dose lowering 90% of parasitemia) values were determined using equation 1 ([41]), where P is the parasitemia measured at any given dose, Pmax is the maximum level of parasitemia, Pmin is the minimum level of parasitemia, EZ50 is the dose required to produce 50% of the maximal effect, s is the Hill slope describing the steepness of the curve, and x is the dose (in mg/kg). 1 P=Pmin +{[Pmax−Pmin]/[1+10^(logEZ50−log x)×s]}

[5] = Parallel artificial membrane permeability assay (PAMPA); assay type: in vitro ADME; details: % fraction absorbed
Excerpt: (§1) page 5: Running title: PreclinicalPK -PD of antimalarials 73 to high through put form at using in- house standard assa y protocols that are described in the 74 literature. 75 (a)HT-Equilibrium solubilit y at pH 6.8( 1); (b)Parallel Artificial Membrane P ermeability Assa y 76 expressed in % fraction absorbed (FA) ( 2,3 ); (c)Apparent permeability from apical to […] 78 tested; (d)intrinsic clearance in mouse liver micro somes ex pressed as µ L/ min/mg protein, in 79 the presen ce of liver enzym es ( 6); (e)Mous e plasm a protein binding using rapid equilibrium […] 81 82 83 84 85 86 87 88 89 90 91 92 93 94 95 96 97 98 5

[6] = system: Caco-2 cells; experiment: Caco-2 permeability; assay type: in vitro ADME; details: apical to basolateral
Excerpt: as §1

[7] = Intrinsic clearance in mouse liver microsomes; assay type: in vitro ADME; details: per mg protein
Excerpt: as §1

[8] = Mouse plasma protein binding, rapid equilibrium dialysis; assay type: in vitro ADME
Excerpt: as §1

[9] = sigmoid dose-response model, single oral doses 24 h postinfection, parasitemia 72 h postinfection

## C[C@H]1Cc2c([nH]c3ccccc23)[C@@]2(N1)C(=O)Nc1ccc(Cl)cc12 [(+)-1]
[1]
  IC50: 13 ± 2.2 nM
[2]
  IC50: 242 ± 124 nM
[3]; i.v. 5 mg/kg
  CL: 49.7 mL/min/kg
  Vss: 0.9 L/kg
  t1/2 (i.v.): 24 min
[3]; oral 25 mg/kg vs i.v. 5 mg/kg
  F (oral bioavailability): 13%
[3]; single oral dose 25 mg/kg
  AUC0–24: 1300 ng·h/mL
  Tmax: 15 min
  t1/2 (oral): 42 min
[3]; single oral dose 25 mg/kg, plasma
  Cmax: 1200 ng/mL
[4]; dose vs parasitemia model
  Hill slope: −3.1
[4]; [9]
  Pmax (maximum parasitemia): 33.11
  Pmin (minimum parasitemia): 0.03
[4]; single oral dose 24 h postinfection, parasitemia 72 h postinfection
  ED90 (effective dose causing a 90% reduction in parasitemia): 15.3 mg/kg
[5]
  PAMPA %FA: 97%
[6]
  Caco-2 Papp (A-B): 7.19 10-6 cm/sec
[7]
  Hepatic CLint in mouse liver microsomes: 770 µL/min/mg
[8]
  Mouse PPB: 98.4%
